Where “and” joins values, the source holds several entries; their conditions need not be identical. Equal entries are not always repeated. Entries after “also recorded” stand apart in the source; their conditions may differ. Where two headings read alike, the source gives them in different places.
Assays:
CatK [1] = target: T1, CatK (Homo sapiens, UniProt P43235); assay: CatK collagenase assay (type I collagen degradation, SDS-PAGE); format: biochemical
T1 construct: made in house; host or cells: Pichia pastoris
T1 sequence (P43235 115-329): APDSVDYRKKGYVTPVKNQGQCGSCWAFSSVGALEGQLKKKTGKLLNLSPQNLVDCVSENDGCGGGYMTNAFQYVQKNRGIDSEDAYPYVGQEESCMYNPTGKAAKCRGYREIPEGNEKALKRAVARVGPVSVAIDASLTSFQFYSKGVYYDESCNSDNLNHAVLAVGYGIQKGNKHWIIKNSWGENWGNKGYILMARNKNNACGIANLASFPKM
Description: The collagenase inhibitory activities of all identified compounds were measured using a collagen degradation assay. Soluble bovine type I collagen (0.6 mg/mL) was incubated with 400 nM recombinant human CatK, in the presence or absence of 200 nM chondroitin 4-sulfate (C4-S) in 100 mM sodium acetate buffer, pH 5.5, containing 2.5 mM dithiothreitol (DTT) (Sigma-Aldrich Canada, Oakville, Ontario, Canada) and 2.5 mM ethylenediametetraacetate (EDTA) (Sigma-Aldrich). In the experiments involving detergent to minimize inhibitor aggregation, 0.001% or 0.005% Triton X-100 was added to the buffer with the inhibitor. The recombinant human CatK was expressed in Pichia pastoris and purified as previously described. Selected compounds identified by molecular docking were ordered from the National Cancer Institute through the Developmental Therapeutics Program (Rockville, MD). All compounds were dissolved in DMSO as a 20 or […] stock. […] After incubation at 28°C for 4 hours, 1 μM of E-64 was added to block the residual activity of CatK.
(§1) Digestion with MMP-1 was performed in 50 mM Tris-HCl, pH 7.4, containing 200 mM NaCl and 5 mM CaCl2 at 28°C for 4 h. Reactions were stopped by adding 25 mM EDTA as previously described. Samples were analyzed using 10% SDS-PAGE gels and stained with Coomassie. The resulting bands of α-collagen chains were quantitatively assessed using ImageJ (Version 1.5) and IC50 graphs were plotted using GraphPad Prism (GraphPad Software, Version 5.0, La Jolla California USA).

CatK [2] = target: T1, CatK; assay: Z-Phe-Arg-MCA cleavage assay with CatK; format: biochemical; details: 100 μM inhibitor, 5 nM CatK, 5 μM substrate, pH 5.5
Description: The enzymatic activity of CatK was monitored by measuring the rate of release of the fluorogenic group, amino-methyl coumarin at an excitation wavelength of 380 nm and an emission wavelength of 450 nm using a Molecular Devices SpectraMax Gemini spectrofluorometer. Inhibitors were added prior to measurement of enzyme activity. The assays were performed at 25°C at a fixed enzyme concentrations (5 nM) and substrate concentration (5 μM) in 100 mM sodium acetate buffer, pH 5.5, containing 2.5 mM DTT and 2.5 mM EDTA. Z-Phe-Arg-MCA hydrolysis with trypsin was carried out in 50 mM Tris-HCl, pH 8.8 at 10 nM enzyme concentration.

MMP-1 [3] = target: T2, MMP-1 (Homo sapiens, UniProt P03956); assay: Collagen digestion with MMP-1; format: biochemical; details: 50 μM inhibitor, 400 nM MMP-1
T2 sequence (P03956 100-469): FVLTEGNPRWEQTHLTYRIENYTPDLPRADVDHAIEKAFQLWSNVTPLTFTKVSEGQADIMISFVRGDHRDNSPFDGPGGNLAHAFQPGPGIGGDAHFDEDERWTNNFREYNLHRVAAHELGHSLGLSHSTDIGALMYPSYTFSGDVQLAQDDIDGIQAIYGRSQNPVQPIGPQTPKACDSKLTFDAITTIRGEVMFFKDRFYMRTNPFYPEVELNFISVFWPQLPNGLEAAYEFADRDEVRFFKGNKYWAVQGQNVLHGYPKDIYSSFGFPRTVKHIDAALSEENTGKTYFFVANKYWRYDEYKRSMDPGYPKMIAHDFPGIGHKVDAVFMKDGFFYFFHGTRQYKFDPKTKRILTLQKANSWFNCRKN
Description: as §1

MMP-1 [4] = target: T2, MMP-1; assay: Gelatin degradation assay with MMP-1; format: biochemical; details: 50 μM inhibitor, 10 nM MMP-1
Description: Gelatin (0.6 mg/mL) degradation assays were performed in the same manner as the collagen degradation experiments with 10 nM enzyme and were incubated at 37°C for one hour at the appropriate pH values for the individual proteases (CatK, pH 5.5; MMP-1, pH 7.4; trypsin, pH 8.8).

human osteoclasts [5] = assay: Human osteoclast bone resorption assay on bone slices; format: cell-based; details: 1 μM inhibitor, 72 h, versus untreated
Description: (§2) Osteoclasts were generated from mononuclear cells isolated from human bone marrow tissue (Lonza, Walkersville, MD). The bone marrow cells were centrifuged at 400 g for 5 min and the pellet was re-suspended in 10 mL α-MEM (α-Minimal Essential Media) and layered on 10 ml Ficoll-Plaque media solution. After centrifugation at 500 g for 30 min, the white interface containing the monocytes was harvested and washed twice with α-MEM. Cells were cultured in α-MEM containing 10% FBS and 25 ng/mL M-CSF for 24 hours and then cultured in 25 ng/mL RANKL and 25 ng/mL M-CSF for 7 days. Differentiated osteoclasts (100,000 cells per slice) were then seeded on each bone slice (5.5 mm diameter and 0.4 mm thickness; self-made) in the presence or absence of inhibitors and incubated for 72 hours at 5% CO2 and 37°C with the DMSO concentration at 0.1%. The inhibitor concentration range tested varied between 50 nM to 3 μM.
(§3) To compare the effects of the compounds on cell survival, the metabolic activity of osteoclasts was determined using the CellTiter-Blue Viability Assay (Promega, Madison, WI, USA). Bone slices from each condition (inhibitor-treated and control groups) were fixed in 4% formaldehyde and subsequently stained for tartrate-resistant acid phosphatase (TRAcP) activity (Acid Phosphatase, Leukocyte (TRAP) Kit; Sigma-Aldrich). Aliquots from cell culture media were used to determine the CTx-I concentration (MyBiosource ELISA kit, San Diego, CA). CTx-I is a CatK-specific C-terminal cleavage product of triple helical type I collagen. The total number of osteoclasts per bone slice was determined after TRAcP staining. Cells with ≥2 nuclei were counted as osteoclasts. After 72 h, bone slices from each condition were incubated in filtered water for cell lysis and cells were removed using a cotton stick. Subsequently the resorption cavities were stained with toluidine blue and observed by light microscopy. The number of resorption events and eroded bone surface area were determined as previously described. All light microscopic analyses were performed using a Nikon Eclipse LV100 microscope and a Nikon Eclipse Ci microscope.

human osteoclasts [6] = assay: Osteoclast survival: CellTiter-Blue metabolic activity and osteoclast count after TRAcP staining; format: cell-based; details: compared with untreated cells
Description: as §2, §3

quinone oxidoreductase = system: quinone oxidoreductase; design: method as in PMID 21859103; details: cited from earlier work

- IC50 (CatK [1]; 400 nM CatK, soluble bovine type I collagen 0.6 mg/mL, pH 5.5, 28°C, 4 h, read-out: Collagenase IC50): < 20 µM and 4.9 µM and ~5 µM
- IC50 (CatK [1]; Collagenase IC50 with 0.005% Triton X-100, in the presence of detergent, 0.005% Triton X-100): 5.2 ± 1.5 µM
- Collagenase IC50 with 0.005% Triton X-100 (CatK [1]; in the presence of detergent, 0.005% Triton X-100): not significantly different
- inhibition at 100 µM (CatK [2]): 5 ± 2.7%
Compound: CN(C)CCCNc1ccc2ncn3c4ccccc4c(=O)c1c23 [compound 3, 5-(3-(dimethylamino)propylamino)-6H-imidazo[4,5,1-de]acridin-6-one]
- inhibitory activity towards the collagenase activity of MMP-1 (MMP-1 [3]): no inhibitory activity; also recorded: did not show inhibition
- inhibitory activity for the gelatinase activity of MMP-1 (MMP-1 [4]): no inhibitory activity; also recorded: did not show inhibition
- Number of trenches (human osteoclasts [5]): significant reduction; also recorded: significantly reduced
- percentage of eroded surface area / total eroded surface (human osteoclasts [5]): significant reduction; also recorded: significantly reduced
- Metabolic activity of osteoclasts (human osteoclasts [6]; CellTiter-Blue): no significant differences
- number of osteoclasts (human osteoclasts [6]; TRAcP staining): no significant differences
- activity in an inhibitor screen of a quinone oxidoreductase (quinone oxidoreductase): active

Source: publication PMC5663397, “A composite docking approach for the identification and characterization of ectosteric inhibitors of cathepsin K” (PLoS ONE, 2017)
